Results on 26 compounds are retold here after patent US7569724B2, “Carbamic acid compounds comprising an amide linkage as HDAC inhibitors” (Topotarget UK Limited, priority 2000, dated 2009).

As usually defined, the melting point is the temperature, or range, at which the solid turns liquid.

For data set [1], the system named is K11 HPV E7 transformed human keratinocyte line. The experiment in a line: Secondary assay: cell proliferation WST-1, K11. The class given is cell-based. The note with it: for IC50: Homo sapiens, Keratinocyte, read-out: Cell Proliferation Inhibition WST-1 (IC50 unless otherwise specified) K11. As for the experimental part:
(§1) Compounds with HDAC inhibition activity, as determined using the primary assay, were subsequently evaluated using secondary cell-based assays. The following cell lines were used:
K11—HPV E7 transformed human keratinocyte line provided by Pidder Jansen-Duerr, Institut für Biomedizinische Alternsforschung, Innsbruck, Austria.
(§2) Cells were plated in 96-well plates at 3-10×10^3 cells/well in 100 μL of culture medium. The following day, different concentrations of candidate compounds were added and the cells incubated at 37° C. for 48 h. Subsequently, 10 μL/well of WST-1 reagent was added and the cells reincubated for 1 hour. After the incubation time, absorbance was measured.
(§3) WST-1 is a tetrazolium salt which is cleaved to formazan dye by cellular enzymes. An expansion in the number of viable cells results in an increase in the overall activity of mitochondrial dehydrogenases in the sample. This augmentation in the enzyme activity leads to an increase in the amount of formazan dye formed, which directly correlates to the number of metabolically active cells in the culture. The formazan dye produced is quantified by a scanning multiwell spectrophotometer by measuring the absorbance of the dye solution at 450 nm wavelength (reference wavelength 690 nm).
(§4) Percent activity (% activity) in reducing the number of viable cells was calculated for each test compound as: % activity={(S^C−B)/(S^o−B)}×100 wherein S^C denotes signal measured in the presence of the compound being tested, S^o denotes signal measured in the absence of the compound being tested, and B denotes the background signal measured in blank wells containing medium only.
(§5) IC50 values were calculated using the software package Prism 3.0 (GraphPad software Inc., San Diego, Calif.), setting top value at 100 and bottom value at 0.

The subject of the next data set is JURKAT human T-cell line. Briefly: Secondary assay: cell proliferation WST-1, Jurkat. The class given is cell-based. The following applies: 48 h; for IC50: Homo sapiens, read-out: Cell Proliferation Inhibition WST-1 (IC50 unless otherwise specified) Jurkat. As for the experimental part:
as §1
JURKAT—Human T-cell line (ATCC no. TIB-152).
as §2, §3, §4, §5
In general terms: Tetrazolium assays rely on reduction of a dye to a coloured formazan, in cell work by metabolically active cells.

The subject of another data set is HeLa cells. Briefly: Secondary assay: cell proliferation WST-1, HeLa. The class given is cell-based. The note with it: Homo sapiens, 48 h, read-out: Cell Proliferation Inhibition WST-1 (IC50 unless otherwise specified) HeLa. The method, boiled down:
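Absorbance at 450 nm (reference 690 nm); % activity vs untreated after blank subtraction, IC50 fitted with top 100 and bottom 0.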

In another data set the test system is HDAC (HeLa cell extract). Briefly: Primary assay: deacetylase activity, HeLa cell extract as source of HDAC. The class given is biochemical, human. The following applies: HeLa cell extract; for IC50: read-out: HDAC Inhibition (IC50 unless otherwise specified) HeLa; for HDAC Inhibition HeLa, percent: @ 500 nM. The method, boiled down:
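Crude HeLa extract (freeze-thaw in 60 mM TrisCl pH 8.0, 450 mM NaCl, 30% glycerol) was incubated 1 h at 37° C with a [³H]acetyl-labelled histone H4 N-terminal peptide in 20 mM Tris pH 7.4, 10% glycerol.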

Like-named read-outs stand apart in the source and are kept apart here.

On to `O=C(CCCCCNC(=O)c1ccc2ccccc2c1)NO` [PX105687, Naphthalene-2-carboxylic acid (5-hydroxycarbamoylpentyl)amide], for which the IC50 in data set [1] (48 h) was 2.6 µM; in the data set on JURKAT human T-cell line, 0.4 µM.
`O=C(CCCCCCNC(=O)c1ccc2ccccc2c1)NO` [PX106493, Naphthalene-2-carboxylic acid (6-hydroxycarbamoyl-hexyl)-amide] registered a melting point of 136 to 137 °C. For the same compound, in the data set on HeLa cells, the IC50 came to 0.36 µM. In addition, the IC50 in data set [1] (48 h) was found to be 2.1 µM. Moreover, the IC50 with JURKAT human T-cell line was determined as 0.2 µM.
On to `O=C(CCCCCCCNC(=O)c1ccc2ccccc2c1)NO` [PX106515, Naphthalene-2-carboxylic acid (7-hydroxycarbamoyl-heptyl)-amide], for which the melting point fell in the range of 138 to 139 °C. In the data set on HDAC (HeLa cell extract), the IC50 was 0.0277 µM. Also, the IC50 in the data set with HeLa cells stood at 3.6 µM. Besides, the IC50 in data set [1] (48 h) stood at 1.8 µM. Further, the IC50 in the data set with JURKAT human T-cell line was 2.7 µM.
In the same order, the values of `O=C(CCCCCCC(=O)NCC(O)c1ccccc1)NO` (stereo not drawn) [PX116226, Octanedioic acid hydroxyamide (2-hydroxy-2-phenyl-ethyl)-amide] are 100 to 102 °C, 0.562 µM, 4.1 µM, 5.1 µM and 3.2 µM.
`CN(CCCCCC(=O)NO)C(=O)/C=C/C=C/c1ccccc1` [PX116234] had a melting point of 145 to 147 °C. Besides, the IC50 in the data set with HDAC (HeLa cell extract) came to 0.015 µM. For the same compound, the IC50 in the data set with HeLa cells was determined as 3.4 µM. In data set [1] (48 h), the IC50 was determined as 3.6 µM. Besides, the IC50 in the data set with JURKAT human T-cell line worked out at 2.7 µM.
In the case of `O=C(/C=C/c1cccn1-c1ccc(Cl)cc1)NCCCCCC(=O)NO` [PX116235, E-3-[1-(4-Chlorophenyl)-1H-pyrrol-2-yl]-N-(5-hydroxycarbamoylpentyl)acrylamide], the IC50 was found to be 0.01 µM in the data set with HDAC (HeLa cell extract), 1 µM in the data set on HeLa cells, 2.6 µM in data set [1] (48 h) and 0.7 µM in the data set with JURKAT human T-cell line.
`O=C(CCCCCC(=O)NCCc1c[nH]c2ccccc12)NO` [PX117408, N^1-Hydroxy-N^7-[2-(1H-indol-3-yl)ethyl]heptanediamide] displayed a melting point of 140 to 142 °C. Further, in the data set on HDAC (HeLa cell extract), the “HDAC Inhibition HeLa, percent” value came to 41% @ 500 nM. In addition, the IC50 in the data set with HeLa cells amounted to 11 µM.
In the case of `O=C(C#Cc1ccccc1)NCCCCCC(=O)NO` [PX117415, 3-Phenyl-propynoic acid (5-hydroxycarbamoyl-pentyl)-amide], the melting point is 112 to 113 °C. Also, the IC50 in the data set on HDAC (HeLa cell extract) was 0.062 µM. For the same compound, the IC50 in the data set on HeLa cells turned out to be 11 µM.
In the case of `O=C(CCCCCCC(=O)NCCc1ccccc1)NO` [PX117419, Octanedioic acid hydroxyamide phenethyl-amide], the “HDAC Inhibition HeLa, percent” value with HDAC (HeLa cell extract) was 46% @ 500 nM. The values for the IC50 (with HeLa cells; in data set [1] (48 h); in the data set with JURKAT human T-cell line) were 13 µM, greater than 30 µM and 3.5 µM, respectively.
Regarding `CC(C)c1ccc(C(=O)NCCCCCC(=O)NO)cc1` [PX117421, N-[6-(Hydroxyamino)-6-oxohexyl]-4-isopropylbenzamide], the melting point was in the range of 127.5 to 128 °C. Besides, in the data set on HDAC (HeLa cell extract), the IC50 was 0.085 µM. Also, the IC50 with HeLa cells came out at 3.1 µM.
For the compound `O=C(/C=C/c1cccc(Oc2ccccc2)c1)NCCCCCC(=O)NO` [PX117430, E-N-(5-Hydroxycarbamoylpentyl)-3-(3-phenoxyphenyl)acrylamide], the IC50 in the data set with HDAC (HeLa cell extract) is 0.085 µM; in the data set on HeLa cells, 27 µM; in data set [1] (48 h), 4.4 µM; in the data set on JURKAT human T-cell line, 4.6 µM.
Take `O=C(C=C(c1ccccc1)c1ccccc1)NCCCCCC(=O)NO` [PX117436, E-N-(5-Hydroxycarbamoylpentyl)-3,3-diphenylacrylamide]: in the data set on HDAC (HeLa cell extract), the “HDAC Inhibition HeLa, percent” value turned out to be 64% @ 500 nM. In addition, the IC50 with HeLa cells is 8.5 µM; in data set [1] (48 h) it was greater than 30 µM; in the data set with JURKAT human T-cell line, 3.5 µM.
In the case of `O=C(/C=C/C=C(c1ccccc1)c1ccccc1)NCCCCCC(=O)NO` [PX117437, 2E-5,5-Diphenylpenta-2,4-dienoic acid (5-hydroxycarbamoylpentyl)amide], in the data set on HDAC (HeLa cell extract), the “HDAC Inhibition HeLa, percent” value turned out to be 95% @ 500 nM. In addition, the results for the IC50 (in the data set with HeLa cells; in data set [1] (48 h); in the data set on JURKAT human T-cell line) were 3.7 µM, 3.4 µM and 1.4 µM, respectively.
The compound `O=C(CCCCCNC(=O)CC/C=C\c1ccccc1)NO` [PX117444, (Z)-N-[6-(Hydroxyamino)-6-oxohexyl]-5-phenyl4-pentenamide] displayed a melting point of 101 to 103 °C. In the data set with HDAC (HeLa cell extract), the IC50 is 0.688 µM. Also, the IC50 in the data set with HeLa cells came to 45 µM.
As for `C/C(=C\C#Cc1ccccc1)C(=O)NCCCCCC(=O)NO` [PX117451, E-2-Methyl-5-phenylpent-2-en-4-ynoic acid (5-hydroxycarbamoyl-pentyl)amide], the values for the IC50 (in the data set on HDAC (HeLa cell extract); in the data set on HeLa cells; in data set [1] (48 h)) were 0.031 µM, 22 µM and 12 µM, respectively.
Take `O=C(CCCCCNC(=O)CC=C(c1ccccc1)c1ccccc1)NO` [PX117454, E-4,4-Diphenylbut-3-enoic acid (5-hydroxycarbamoylpentyl)amide]: the IC50 in the data set with HDAC (HeLa cell extract) amounted to 0.263 µM; with HeLa cells, 15 µM; in data set [1] (48 h), 13 µM; in the data set with JURKAT human T-cell line, 3.4 µM.
For `O=C(CCCCCC(=O)Nc1ccc2ccccc2c1)NO` [PX117461, Heptanedioic acid hydroxyamide naphthalen-2-ylamide], the melting point was 142 to 144 °C. Also, the IC50 in the data set on HDAC (HeLa cell extract) worked out at 0.02 µM. The IC50 in the data set on HeLa cells was greater than 5 µM.
On to `O=C(/C=C/c1cccc(NC(=O)/C=C/C=C/c2ccccc2)c1)NO` [PX117706, N-{3-[(E)-3-(Hydroxyamino)-3-oxo-1-propenyl]phenyl}-5-phenyl-(2E,4E)-pentadienamide], for which the IC50 in the data set with HDAC (HeLa cell extract) was 0.32 µM; in the data set on HeLa cells it was 30 µM; in data set [1] (48 h), 6.9 µM; in the data set on JURKAT human T-cell line it was 1.8 µM.
For `O=C(/C=C/c1ccc(Cl)cc1F)NCCCCCC(=O)NO` [PX117719, 3-(4-Chloro-2-fluoro-phenyl)-N-(5-hydroxycarbamoyl-pentyl)-acrylamide], the values for the IC50 (with HeLa cells; in data set [1] (48 h); with JURKAT human T-cell line) were 6.8 µM, 0.94 µM and 0.56 µM, respectively.
As for `CC(C)(C(=O)NCCCCCC(=O)NO)c1ccc(Cl)cc1` [PX117722, 6-[2-(4-Chlorophenyl)-2-methyl-propionylamino]-hexanoic acid hydroxyamide], the figures for the IC50 (in the data set on HDAC (HeLa cell extract); in data set [1] (48 h); in the data set with JURKAT human T-cell line) were greater than 0.1 µM, greater than 30 µM and 8.8 µM, respectively.
For the compound `O=C(CCCCCNC(=O)c1sccc1OCc1ccccc1)NO` [PX117723], the “HDAC Inhibition HeLa, percent” value in the data set with HDAC (HeLa cell extract) is reported as 46% @ 500 nM. For the same compound, the IC50 was determined as 10 µM in data set [1] (48 h) and 1.2 µM with JURKAT human T-cell line.
In the case of `O=C(CCCCCNC(=O)c1ccc(Oc2ccccc2)cc1)NO` [PX117726], in the data set on HDAC (HeLa cell extract), the “HDAC Inhibition HeLa, percent” value is given as 35% @ 500 nM. The IC50 was 4.1 µM in data set [1] (48 h) and 9.9 µM in the data set with JURKAT human T-cell line.
On to `O=C(CCCCCNC(=O)Cc1ccccc1OCc1ccccc1)NO` [PX117728], for which the IC50 in the data set on HDAC (HeLa cell extract) is greater than 0.1 µM; in data set [1] (48 h), 28 µM; in the data set with JURKAT human T-cell line, 4.1 µM.
Regarding `C/C(C(=O)NCCCCCC(=O)NO)=C(/C)c1ccccc1` [PX117737, E-2-Methyl-3-phenylbut-2-enoic acid (5-hydroxycarbamoylpentyl)amide], the IC50 is 1.2 µM in the data set on HDAC (HeLa cell extract), 32 µM in the data set with HeLa cells, greater than 30 µM in data set [1] (48 h) and 2.2 µM in the data set with JURKAT human T-cell line.
For `O=C(CCCCCNC(=O)[C@H](Cc1c[nH]c2ccccc12)NC(=O)c1ccc2ccccc2c1)NO` [PX117783, (S)-Naphthalene-2-carboxylic acid [1-(5-hydroxycarbamoyl-pentylcarbamoyl)-2-(1H-indol-3-yl)-ethyl]-amide], the IC50 with HDAC (HeLa cell extract) came out at 0.1 µM; with HeLa cells it was 6 µM; in data set [1] (K11, 48 h) it was 9.7 µM; with JURKAT human T-cell line, 1.6 µM.
Turning to `O=C(CCCCCNC(=O)[C@H](Cc1c[nH]c2ccccc12)NC(=O)CCCNC(=O)OCc1ccccc1)NO` [PX117785, (S)-Carbamic acid, [4-[[2-[[6-(hydroxyamino)-6-oxohexyl]amino]-1-(1H-indol-3-ylmethyl)-2-oxoethyl]amino]-4-oxobutyl]-, phenylmethyl ester], in the data set with HDAC (HeLa cell extract), the IC50 came to 0.192 µM. For the same compound, the “Cell Proliferation Inhibition WST-1 (IC50 unless otherwise specified) K11” value in data set [1] (K11, 48 h) is “Inactive”. The “Cell Proliferation Inhibition WST-1 (IC50 unless otherwise specified) Jurkat” value with JURKAT human T-cell line is given as “Inactive”.
